From ChEMBL document CHEMBL1201862, “PubChem BioAssay data set” (2004) come the findings set out here.

Some test systems named below: TK-10; UACC-62; EKVX; MDA-MB-435; HCT-116; T47D; MCF7; U-251; LOX IMVI; SK-OV-3; NCI-H460; K562; HCC 2998; SK-MEL-2; SK-MEL-5; MOLT-4; RXF 393; SR; OVCAR-4; A498.
Common to all, as to experiment: NCI-60 cell line screen, 48 h

The structures appear in SMILES notation.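 Each compound was tested at five concentrations against cells in 96-well plates for 48 hours. GI50: concentration for 50% inhibition of growth.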 The source made the active and inactive calls. No stated cut-off is given here; in the data, active = GI50 up to about 1.1 µM and inactive = higher. Where a SMILES comes first, the peptide text is derived from it. The star is where a group is joined. Boc = CC(C)(C)OC(=O)*; Bn = c1ccc(C*)cc1

For the compound `COC1(OC)CC(CO)(CNc2cc(Cl)nc(N)n2)C1`, the GI50 in the test with TK-10 was > 100 µM (inactive); in the test with UACC-62 it was > 100 µM (inactive); with EKVX, 39.7 µM (inactive); in the test with MDA-MB-435, > 100 µM (inactive); with HCT-116, > 100 µM (inactive); in the test on T47D, 24.9 µM (inactive). Besides, the GI50 in the test on MCF7, in the test with U-251, with LOX IMVI, in the test with SK-OV-3, with NCI-H460 and in the test on K562 was > 100 µM (inactive) throughout. Further, the GI50 is > 100 µM (inactive) in the test on HCC 2998; > 100 µM (inactive) in the test on SK-MEL-2; > 100 µM (inactive) in the test on SK-MEL-5; > 100 µM (inactive) in the test with MOLT-4; 55.7 µM (inactive) with RXF 393; > 100 µM (inactive) in the test with SR. The GI50 in the test on OVCAR-4 is > 100 µM (inactive).
Turning to `Cc1ccc(C(=O)Nc2ccc(S(=O)(=O)O)c3cc(S(=O)(=O)O)cc(S(=O)(=O)O)c23)cc1NC(=O)Nc1cc(C(=O)Nc2ccc(S(=O)(=O)O)c3cc(S(=O)(=O)O)cc(S(=O)(=O)O)c23)ccc1C`, the GI50 in the test on TK-10, in the test on UACC-62, in the test on MDA-MB-435, in the test on HCT-116, in the test with T47D and in the test on MCF7 was > 87.5 µM (inactive) in each case. The GI50 with U-251, in the test with LOX IMVI, in the test with NCI-H460, in the test on K562, with HCC 2998 and in the test on SK-MEL-2 was > 87.5 µM (inactive) in each case. The GI50 with SK-MEL-5, with A498, in the test with MOLT-4, with SR and in the test with OVCAR-4 was > 87.5 µM (inactive) each time.
With `COC(=O)[C@]1(C)CCC[C@]2(C)[C@@H](CCC(=O)C(C)C)[C@]3(C=O)O[C@@H]3C[C@H]21`, the GI50 is 51.8 µM (inactive) in the test with TK-10; 50.2 µM (inactive) in the test on UACC-62; 44.8 µM (inactive) with EKVX; 28.2 µM (inactive) with MDA-MB-435; 21.7 µM (inactive) in the test on HCT-116; 21.8 µM (inactive) in the test with T47D. The GI50 in the test with MCF7 is 33.4 µM (inactive); in the test on U-251 it was 33.7 µM (inactive); in the test with LOX IMVI, 24.7 µM (inactive); with SK-OV-3, 35.6 µM (inactive); in the test on NCI-H460, > 100 µM (inactive); with K562, 27.9 µM (inactive). For the same compound, the GI50 in the test with HCC 2998 is 58.6 µM (inactive); in the test on SK-MEL-2, 34.1 µM (inactive); in the test with SK-MEL-5, 31.1 µM (inactive); in the test with MOLT-4, 29.9 µM (inactive); with RXF 393, 19 µM (inactive); in the test on SR, 30.7 µM (inactive). For the same compound, the GI50 in the test with OVCAR-4 was 24.7 µM (inactive).
Turning to `CCCCN(CCCC)CCC(O)c1cc2c(Cl)cc(Cl)cc2c2cc(C(F)(F)F)ccc12` (stereo not given), the GI50 is 13.4 µM (inactive) in the test with TK-10; 15 µM (inactive) with UACC-62; 14.5 µM (inactive) with EKVX; 12.6 µM (inactive) with MDA-MB-435; 12.2 µM (inactive) with HCT-116; 12.8 µM (inactive) in the test on T47D. The GI50 is 10.2 µM (inactive) in the test with MCF7; 14.4 µM (inactive) in the test with U-251; 6.52 µM (inactive) in the test on LOX IMVI; 14 µM (inactive) in the test with SK-OV-3; 10.3 µM (inactive) with NCI-H460; 6.73 µM (inactive) in the test with K562. Also, the GI50 is 11.7 µM (inactive) in the test on HCC 2998; 16.1 µM (inactive) in the test on SK-MEL-2; 3.59 µM (inactive) with A498; 8.57 µM (inactive) with MOLT-4; 10.3 µM (inactive) in the test on SR; 4.78 µM (inactive) in the test with OVCAR-4.
For `COC(=O)C(CC(C)C)NC(=O)C(C)NC(=O)C(Cc1ccc(OCc2ccccc2)cc1)NC(=O)C(COCc1ccccc1)NC(=O)OC(C)(C)C` (stereo not given) (Boc-S(Bn)Y(Bn)AL-OMe; configuration not given here), the GI50 is > 100 µM (inactive) in the test with TK-10; 96.6 µM (inactive) in the test on UACC-62; > 100 µM (inactive) in the test with EKVX; > 100 µM (inactive) in the test with MDA-MB-435; > 100 µM (inactive) in the test with HCT-116; > 100 µM (inactive) in the test with T47D. Besides, the GI50 in the test on MCF7, in the test with U-251, with LOX IMVI, in the test on SK-OV-3, with NCI-H460 and in the test on K562 was > 100 µM (inactive) in each case. Besides, the GI50 is > 100 µM (inactive) in the test with SK-MEL-5; 96.2 µM (inactive) with MOLT-4; > 100 µM (inactive) with RXF 393; > 100 µM (inactive) in the test on SR; 4.3 µM (inactive) with OVCAR-4.
For the compound `CCOC(=O)OC1C(Br)C2CCC1(C)C2(C)C` (stereo not given), the GI50 with TK-10 is 14.2 µM (inactive); with UACC-62, 17.7 µM (inactive); with EKVX, 15.5 µM (inactive); in the test on MDA-MB-435 it was 11.4 µM (inactive); in the test with HCT-116 it was 6.44 µM (inactive); in the test on T47D, 15.6 µM (inactive). The GI50 in the test with MCF7 was 15 µM (inactive); in the test on U-251 it was 13 µM (inactive); in the test on LOX IMVI, 6.59 µM (inactive); in the test on SK-OV-3, 15.7 µM (inactive); in the test with NCI-H460, 4.79 µM (inactive); with K562 it was 5.79 µM (inactive). For the same compound, the GI50 with HCC 2998 was 12.3 µM (inactive); in the test on SK-MEL-5, 14.5 µM (inactive); in the test with MOLT-4, 4.6 µM (inactive); in the test on RXF 393 it was 10.9 µM (inactive); in the test with SR, 2.39 µM (inactive); in the test with OVCAR-4, 11.7 µM (inactive).
On to `COC(=O)C1=C(C)NC(C)=C(C(=O)OC)C1c1cccc(/[N+]([O-])=C/c2ccccc2)c1`, for which the GI50 in the test on TK-10 is 38.9 µM (inactive); in the test with UACC-62, 28.5 µM (inactive); with EKVX, 72.8 µM (inactive); with MDA-MB-435, 19.7 µM (inactive); with HCT-116, 16.7 µM (inactive); with T47D, 17.3 µM (inactive). The GI50 with MCF7 is 17.8 µM (inactive); in the test on U-251, > 100 µM (inactive); in the test with LOX IMVI, 33.7 µM (inactive); with SK-OV-3 it was > 100 µM (inactive); with NCI-H460 it was 97.9 µM (inactive); with K562, > 10 µM (inactive). The GI50 in the test with HCC 2998 was > 100 µM (inactive); in the test on SK-MEL-2, 75 µM (inactive); with SK-MEL-5, > 100 µM (inactive); with MOLT-4, 23.2 µM (inactive); with RXF 393 it was 16.4 µM (inactive); in the test with SR, 21.8 µM (inactive). Besides, the GI50 in the test with OVCAR-4 was 16.5 µM (inactive).
As for `COC(=O)c1ccc2c(c1)CC1(C2)Cc2ccc3c(c2C1)CCC3` (stereo not given), the GI50 in the test with TK-10 is > 100 µM (inactive); in the test on UACC-62 it was 14.6 µM (inactive); in the test with EKVX, 51.3 µM (inactive); in the test on MDA-MB-435, 3.25 µM (inactive); in the test on HCT-116, 23.6 µM (inactive); in the test on T47D, 14.3 µM (inactive). The GI50 was 23.3 µM (inactive) with MCF7; 28.7 µM (inactive) with U-251; 20.8 µM (inactive) with LOX IMVI; 13.6 µM (inactive) with SK-OV-3; 6.64 µM (inactive) in the test on K562; 43 µM (inactive) in the test with HCC 2998. Moreover, the GI50 was 14.3 µM (inactive) in the test on SK-MEL-5; 15 µM (inactive) with MOLT-4; 17.7 µM (inactive) with RXF 393; 20.8 µM (inactive) with SR; 0.809 µM (active) with OVCAR-4.
For the compound `N#C/C(C(=O)Nc1ccc(Cl)cc1)=C(/N)N1CCCC1`, the GI50 in the test on UACC-62, in the test with EKVX, in the test on MDA-MB-435, in the test with HCT-116, in the test with T47D and with MCF7 was > 100 µM (inactive) in each case. The GI50 in the test on U-251, with LOX IMVI, with SK-OV-3, in the test with NCI-H460, with K562 and in the test with HCC 2998 was > 100 µM (inactive) throughout. The GI50 in the test with SK-MEL-2, in the test with SK-MEL-5, in the test with A498, with MOLT-4 and in the test on SR was > 100 µM (inactive) throughout.
With `O=C(Nc1ccc(Cl)cc1)c1cc(S(=O)(=O)Nc2nc3cccnc3[nH]2)c(SSc2cc(Cl)c(C(=O)Nc3ccc(Cl)cc3)cc2S(=O)(=O)Nc2nc3cccnc3[nH]2)cc1Cl`, the GI50 in the test on TK-10, with UACC-62, in the test on EKVX, in the test with MDA-MB-435, in the test with HCT-116 and with T47D was > 100 µM (inactive) each time. Also, the GI50 in the test on MCF7 is > 100 µM (inactive); in the test on U-251, > 100 µM (inactive); in the test on LOX IMVI, > 100 µM (inactive); in the test with SK-OV-3 it was > 100 µM (inactive); in the test with NCI-H460, > 100 µM (inactive); in the test with K562, 3.86 µM (inactive). Besides, the GI50 in the test on HCC 2998 is > 100 µM (inactive); in the test with SK-MEL-2 it was > 100 µM (inactive); in the test on SK-MEL-5, > 100 µM (inactive); in the test on A498, > 100 µM (inactive); in the test on MOLT-4, > 100 µM (inactive); in the test with RXF 393 it was 28.6 µM (inactive). In the test on OVCAR-4, the GI50 was > 100 µM (inactive).
